Assay results reported in ChEMBL document CHEMBL5370633, “Anti-cancer Effect of a Planar Catechin Analog through the Decrease in Mitochondrial Membrane Potential” (ACS Med Chem Lett, 2023).
Calls of active or inactive are those of the source. No cut-off for these calls is given here.

How the values were obtained:
[1] = system: RGK1; assay: Antiproliferative activity against rat RGK1 cells assessed as reduction in viability at 100 to 100 uM after 24 hrs by CCK-8 assay; assay type: functional, cell-based; conditions: dose 100-100 µM
[2] = system: RGK1; assay: Induction of mitochondrial membrane potential loss in rat RGK1 cells at 200 uM after 24 hrs by MitoTracker Red CMXRos fluorescence microscopic analysis; assay type: functional, cell-based
[3] = Cytotoxicity against rat RGM1 cells assessed as reduction in viability at 100 to 100 uM after 24 hrs by CCK-8 assay; assay type: toxicity, cell-based; conditions: rgm1, 24 h, dose 100-100 µM

Question: For `CC1(C)O[C@H]2Cc3c(O)cc(O)cc3O[C@@H]2c2cc(O)c(O)cc21`, which Activity [1] is on record?
Answer: Active

Question: What about the Activity [2] of the same compound?
Answer: Active

Question: What about the Activity [3] of the same compound?
Answer: Toxic
